Experimental data as given in ChEMBL document CHEMBL1129858, “Antitumor agents. 1771. Design, syntheses, and biological evaluation of novel etoposide analogs bearing pyrrolecarboxamidino group as DNA topoisomerase II inhibitors” (1997).

Tests used:
SF-295 = test: Tested for the in vitro cytotoxicity against SF-295 CNS tumor cell lines; format: functional, Homo sapiens
DU-145 = test: Tested for the in vitro cytotoxicity against DU-145 prostate cancer cell line; format: functional, Homo sapiens
MCF7 = test: Tested for the in vitro cytotoxicity against MCF-7 breast cancer cell line; format: functional, Homo sapiens
OVCAR-8 = test: Tested for the in vitro cytotoxicity against OVCAR-8 ovarian cancer cell lines,; format: functional, Homo sapiens
ACHN = test: Tested for the in vitro cytotoxicity against ACHN renal cancer cell line; format: functional, Homo sapiens
HCC 2998 = test: Tested for the in vitro cytotoxicity against HCC2998 colon cancer cell lines; format: functional, Homo sapiens
[1] = Average in vitro cytotoxicity was calculated from all cell lines tested, activity expressed as average log TGI50.; format: functional; conditions: read-out: Log TGI (converted)
[2] = Average in vitro cytotoxicity was calculated from all cell lines tested,; format: functional
KB [3] = test: Tested for the cellular protein DNA complex formation in KB cells at concentration of 25 uM; format: functional, Homo sapiens
KB [4] = test: Tested for the cellular protein DNA complex formation in KB cells at concentration of 2.5 uM; format: functional, Homo sapiens
NCI-H23 = test: Tested for the in vitro cytotoxicity against NCI-H23 non-small cell lung cancer cell line; format: functional, Homo sapiens
M14 = test: Tested for the in vitro cytotoxicity against M-14 melanoma; format: functional, Homo sapiens
MOLT-4 = test: Tested for the in vitro cytotoxicity against MOLT-4 leukemia cell line; format: functional, Homo sapiens
[5] = target: DNA topoisomerase II (Homo sapiens) (UniProt P11388+Q02880); test: Tested for the inhibition of DNA topoisomerase II; format: protein assay
[6] = Average in vitro cytotoxicity was calculated from all cell lines tested; format: functional
KB [7] = test: Tested for the cellular protein DNA complex formation in KB cells at the concentration of 2.5 uM
KB [8] = test: Tested for the cytotoxicity against KB cells; ID50/LD50 = 0.08/>10; format: functional, cell-based; conditions: Homo sapiens
KB [9] = test: Tested for the cytotoxicity against KB-7d cellsTested for the cytotoxicity against KB cells; ID50/LD50 = 0.2/>10; format: functional, cell-based
KB [10] = test: Tested for the cellular protein DNA complex formation in KB cells at the concentration of 2.5 uM; format: functional, Homo sapiens

| SMILES | GI50 (SF-295) [µM] | GI50 (DU-145; Homo sapiens, DU-145) [µM] | GI50 (MCF7; Homo sapiens, MCF7) [µM] | GI50 (OVCAR-8; Homo sapiens, OVCAR-8) [µM] | GI50 (ACHN; Homo sapiens, ACHN) [µM] | GI50 (HCC 2998; Homo sapiens, HCC 2998) [µM] | TGI [1] [µM] | GI50 [2] [µM] | Activity (KB [3]) [%] | GI50 (NCI-H23; Homo sapiens, NCI-H23) [µM] | GI50 (M14; Homo sapiens, M14) [µM] | GI50 (MOLT-4; Homo sapiens, MOLT-4) [µM] | GI50 (ACHN) [µM] | IC100 [5] [µM] | LC50 [6] [µM] | GI50 (SF-295; Homo sapiens, SF-295) [µM] | also measured |
| --- | --- | --- | --- | --- | --- | --- | --- | --- | --- | --- | --- | --- | --- | --- | --- | --- | --- |
| COc1cc([C@@H]2c3cc4c(cc3[C@@H](Nc3ccc(NC(=O)c5cc([N+](=O)[O-])cn5C)cc3)[C@H]3COC(=O)[C@H]23)OCO4)cc(OC)c1O [listing 1 of 3 here] | 0.0513 | 0.017 | < 0.01 | 0.0977 | 0.0118 | 0.224 | 1.95 | 0.123 | 100 | 0.049 | 0.0457 | < 0.01 |  |  |  |  | Activity (KB [4]): 225% |
| COc1cc([C@@H]2c3cc4c(cc3[C@@H](Nc3ccc(NC(=O)c5cc([N+](=O)[O-])cn5C)cc3)[C@H]3COC(=O)[C@H]23)OCO4)cc(OC)c1O [listing 2 of 3 here] | 0.138 |  |  |  |  |  | 0.525 | 0.1 |  |  |  |  | 0.0141 |  |  |  | GI50 (DU-145): 0.0144 µM; GI50 (OVCAR-8): 0.126 µM; GI50 (HCC 2998): 0.245 µM; GI50 (NCI-H23): 0.0389 µM; GI50 (M14): 0.0631 µM |
| COc1cc([C@@H]2c3cc4c(cc3[C@@H](Nc3ccc(NC(=O)c5cc([N+](=O)[O-])cn5C)cc3)[C@H]3COC(=O)[C@H]23)OCO4)cc(OC)c1O [listing 3 of 3 here] |  |  |  |  |  |  |  |  |  |  |  |  |  | 12.5 |  |  |  |
| COc1cc([C@@H]2c3cc4c(cc3[C@@H](Nc3ccc(NC(=O)c5cc(NC(=O)c6cc([N+](=O)[O-])cn6C)cn5C)cc3)[C@H]3COC(=O)[C@H]23)OCO4)cc(OC)c1O |  | 0.372 | 0.0479 | 0.759 | 0.229 | 6.03 | 28.8 | 1.17 | 26 | 0.724 | 5.5 | < 0.01 |  | 100 | 81.3 | 4.9 | Activity (KB [7]): 30%; Cytotoxicity (KB [8]): ID50/LD50 = 0.08/>10; Ratio (KB [9]): ID50/LD50 = 0.2/>10 |
| COc1cc([C@@H]2c3cc4c(cc3[C@@H](O[C@@H]3O[C@@H]5CO[C@@H](C)O[C@H]5[C@H](O)[C@H]3O)[C@H]3COC(=O)[C@H]23)OCO4)cc(OC)c1O [ETOPOSIDE] |  | 0.851 | 4.37 | 16.6 | 0.871 | 18.2 | 77.6 | 9.77 | 100 | 8.32 | 0.813 | 1.02 |  | 100 |  | 10 | Activity (KB [10]): 100% |
| CNCCN[C@@H]1c2cc3c(cc2[C@@H](c2cc(OC)c(O)c(OC)c2)[C@H]2C(=O)OC[C@@H]21)OCO3 |  | 0.363 | 0.0144 | 0.309 | 0.0661 | 0.269 | 3.02 | 0.24 |  | 0.162 | 0.398 | < 0.01 |  |  | 38.9 | 0.0295 |  |
| COc1cc([C@@H]2c3cc4c(cc3[C@@H](NCCNCCO)[C@H]3COC(=O)[C@H]23)OCO4)cc(OC)c1O [listing 1 of 2 here] | 0.178 | 2.75 |  | 2.63 |  | 1.26 | 12 | 1.35 |  | 1.32 | 3.98 |  | 2.34 |  | 66.1 |  | GI50 (MCF7): 0.0389 µM; GI50 (MOLT-4): < 0.01 µM |
| COc1cc([C@@H]2c3cc4c(cc3[C@@H](NCCNCCO)[C@H]3COC(=O)[C@H]23)OCO4)cc(OC)c1O [listing 2 of 2 here] | 1.02 |  |  |  |  |  | 21.4 | 1.86 |  |  |  |  | 0.339 |  | 83.2 |  | GI50 (DU-145): 2.29 µM; GI50 (MCF7): 0.0955 µM; GI50 (OVCAR-8): 2.4 µM; GI50 (HCC 2998): 3.39 µM; GI50 (NCI-H23): 0.661 µM; GI50 (M14): 4.07 µM; GI50 (MOLT-4): 0.0269 µM |
| COc1cc([C@@H]2c3cc4c(cc3[C@@H](NC(=O)NO)[C@H]3COC(=O)[C@H]23)OCO4)cc(OC)c1O |  | 7.24 | 7.76 | 34.7 | 6.03 | 4.07 | 93.3 | 9.77 |  | 9.33 | 37.2 | 4.9 |  |  | 100 | 5.01 |  |
